Measured values as given in patent US11142515B2, “Pyrazolyl-ureas as kinase inhibitors” (RESPIVERT LIMITED, priority 2014, dated 2021).

Legend:
[1] = molecular target: T1, p38 MAPKα isoform (MAPK14) (Homo sapiens, UniProt Q16539); assay: p38 MAPKα enzyme inhibition (Z-LYTE FRET); assay type: biochemical; settings: Table 2B, unit inferred; read-out: p38 MAPKα (Enzyme Profile)
T1 construct: purchased Life Technologies
Method: (§1) The enzyme inhibitory activities of compounds disclosed herein were determined by FRET using synthetic peptides labelled with both donor and acceptor fluorophores (Z-LYTE, Life Technologies, Paisley, UK).
The inhibitory activities of compounds of the invention against the p38 MAPKα isoform (MAPK14: Life Technologies), were evaluated indirectly by determining the level of activation/phosphorylation of the target peptide of the p38 MAPKα down-stream molecule, MAPKAP-K2. The enzyme (40 ng/mL, 2.5 μL) was incubated with the test compound (2.5 μL of either 40 μg/mL, 12 μg/mL, 4 μg/mL, 1.2 μg/mL, 0.4 μg/mL, 0.12 μg/mL, 0.04 μg/mL, 0.012 μg/mL, 0.004 μg/mL or 0.0012 μg/mL) for 2 h at RT. […] Development reagent (protease, 5 μL) was added for 1 h prior to detection in a fluorescence microplate reader (EnVision, Perkin Elmer, Waltham, Mass., USA).
(§2) In all cases, the site-specific protease cleaves non-phosphorylated peptide only and eliminates the FRET signal. Phosphorylation levels of each reaction were calculated using the ratio of coumarin emission (donor) over fluorescein emission (acceptor), for which low ratios indicate high phosphorylation and high ratios indicate low phosphorylation levels.

p38MAPKγ (MAPK12) = molecular target: T2, p38MAPKγ (MAPK12) (Homo sapiens, UniProt P53778); assay: p38 MAPKγ enzyme inhibition (Z-LYTE FRET); assay type: biochemical; settings: Table 2B, unit inferred; read-out: p38 MAPKγ (Enzyme Profile)
T2 construct: purchased Life Technologies
T2 sequence (P53778 1-367): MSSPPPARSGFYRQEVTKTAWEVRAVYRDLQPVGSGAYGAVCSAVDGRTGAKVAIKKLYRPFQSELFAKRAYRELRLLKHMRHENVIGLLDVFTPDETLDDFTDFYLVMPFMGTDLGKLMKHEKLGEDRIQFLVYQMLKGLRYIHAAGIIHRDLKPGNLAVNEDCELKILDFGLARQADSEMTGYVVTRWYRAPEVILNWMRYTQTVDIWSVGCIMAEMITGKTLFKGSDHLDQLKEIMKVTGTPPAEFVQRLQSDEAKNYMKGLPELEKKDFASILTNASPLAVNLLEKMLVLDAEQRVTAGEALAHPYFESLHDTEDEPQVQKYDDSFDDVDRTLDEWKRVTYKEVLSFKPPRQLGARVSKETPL
Method: as §1
The inhibitory activities of compounds of the invention against p38MAPKγ (MAPK12: Life Technologies), were evaluated by determining the level of activation/phosphorylation of the target peptide. The enzyme (800 ng/mL, 2.5 μL) was incubated with the test compound (2.5 μL at either 40 μg/mL, 12 μg/mL, 4 μg/mL, 1.2 μg/mL, 0.4 μg/mL, 0.12 μg/mL, 0.04 μg/mL, 0.012 μg/mL, 0.004 μg/mL or 0.0012 μg/mL) for 2 h at RT. The FRET peptides (8 μM, 2.5 μL), and appropriate ATP solution (2.5 μL, 400 μM) were then added to the enzymes/compound mixtures and incubated for 1 h at RT. Development reagent (protease, 5 μL) was added for 1 h prior to detection in a fluorescence microplate reader (EnVision, Perkin Elmer).
as §2

T1 sequence (Q16539 whole entry, canonical isoform): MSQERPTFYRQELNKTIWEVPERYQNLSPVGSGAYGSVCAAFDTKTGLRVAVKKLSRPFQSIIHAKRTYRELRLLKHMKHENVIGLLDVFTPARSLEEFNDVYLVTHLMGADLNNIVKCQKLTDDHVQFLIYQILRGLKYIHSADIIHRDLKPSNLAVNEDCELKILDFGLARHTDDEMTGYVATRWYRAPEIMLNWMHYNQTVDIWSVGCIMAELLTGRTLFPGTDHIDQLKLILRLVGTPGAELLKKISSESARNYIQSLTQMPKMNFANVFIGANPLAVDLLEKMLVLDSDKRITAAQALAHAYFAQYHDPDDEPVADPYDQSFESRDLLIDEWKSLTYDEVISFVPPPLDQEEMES

IC50 [1] [nM]	IC50 (p38MAPKγ (MAPK12)) [nM]	SMILES
17	95	Cc1ccc(-n2nc(C(C)(C)C)cc2NC(=O)Nc2ccc(OCc3ccnc(Nc4cnc(C(=O)NCCO)cn4)c3)c3ccccc23)cc1 [Example 53, 5-((4-(((4-(3-(3-(tert-Butyl)-1-(p-tolyl)-1H-pyrazol-5-yl)ureido)naphthalen-1-yl)oxy)methyl)pyridin-2-yl)amino)-N-(2-hydroxyethyl)pyrazine-2-carboxamide]
15	151	Cc1ccc(-n2nc(C(C)(C)C)cc2NC(=O)Nc2ccc(OCc3ccnc(Nc4cncc(N5CCCC5)n4)c3)c3ccccc23)cc1 [Example 55, 1-(3-(tert-Butyl)-1-(p-tolyl)-1H-pyrazol-5-yl)-3-(4-((2-((6-(pyrrolidin-1-yl)pyrazin-2-yl)amino)pyridin-4-yl)methoxy)naphthalen-1-yl)urea]
21	262	COC1CCN(C(=O)c2cnc(Nc3cc(COc4ccc(NC(=O)Nc5cc(C(C)(C)C)nn5-c5ccc(C)cc5)c5ccccc45)ccn3)cn2)CC1 [Example 56]
15	229	COc1cc(-n2nc(C(C)(C)C)cc2NC(=O)Nc2ccc(OCc3ccnc(Nc4cnccn4)c3)c3ccccc23)ccc1C [Example 57]
18	435	Cc1cccc(-n2nc(C(C)(C)C)cc2NC(=O)Nc2ccc(OCc3ccnc(Nc4cnc(C)c(C)n4)c3)c3ccccc23)c1 [Example 58]
18	105	Cc1ccc(-n2nc(C(C)(C)C)cc2NC(=O)Nc2ccc(OCc3ccnc(Nc4cnccn4)c3)c3ccccc23)cc1F [Example 59]
14	144	COCCN(C)C(=O)c1cnc(Nc2cc(COc3ccc(NC(=O)Nc4cc(C(C)(C)C)nn4-c4ccc(C)cc4)c4ccccc34)ccn2)cn1 [Example 60]
5.6	32	Cc1cccc(-n2nc(C(C)(C)C)cc2NC(=O)Nc2ccc(OCc3ccnc(Nc4cnc(CO)cn4)c3)c3ccccc23)c1 [Example 61]
24	560	CCc1cncc(Nc2cc(COc3ccc(NC(=O)Nc4cc(C(C)(C)C)nn4-c4cccc(F)c4)c4ccccc34)ccn2)n1 [Example 62]
25	312	CCc1cncc(Nc2cc(COc3ccc(NC(=O)Nc4cc(C(C)(C)C)nn4-c4ccc(OC)nc4)c4ccccc34)ccn2)n1 [Example 63]
–	8.4	COCc1cccc(-n2nc(C(C)(C)C)cc2NC(=O)Nc2ccc(OCc3ccnc(Nc4cnc(CN5CCN(C)CC5)cn4)c3)c3ccccc23)c1 [Example 276, 1-(3-(tert-butyl)-1-(3-(methoxymethyl)phenyl)-1H-pyrazol-5-yl)-3-(4-((2-((5-((4-methylpiperazin-1-yl)methyl)pyrazin-2-yl)amino)pyridin-4-yl)methoxy)naphthalen-1-yl)urea]
–	31	Cc1ccc(-n2nc(C(C)(C)C)cc2NC(=O)Nc2ccc(OCc3ccnc(Nc4cnc(CN5CCN(C)CC5)cn4)c3)c3ccccc23)cc1 [Example 277, 1-(3-(tert-butyl)-1-(p-tolyl)-1H-pyrazol-5-yl)-3-(4-((2-((5-((4-methylpiperazin-1-yl)methyl)pyrazin-2-yl)amino)pyridin-4-yl)methoxy)naphthalen-1-yl)urea]
–	197	Cc1ccc(-n2nc(C(C)(C)C)cc2NC(=O)Nc2ccc(OCc3ccnc(Nc4cnc(C(=O)N[C@@H](C)CN5CCOCC5)cn4)c3)c3ccccc23)cc1 [Example 278, (S)-5-((4-(((4-(3-(3-(tert-butyl)-1-(p-tolyl)-1H-pyrazol-5-yl)ureido)naphthalen-1-yl)oxy)methyl)pyridin-2-yl)amino)-N-(1-morpholinopropan-2-yl) pyrazine-2-carboxamide]
–	116	Cc1ccc(-n2nc(C(C)(C)C)cc2NC(=O)Nc2ccc(OCc3ccnc(Nc4cnc(C(=O)NCCCN5CCOCC5)cn4)c3)c3ccccc23)cc1 [Example 279, 5-((4-(((4-(3-(3-(tert-butyl)-1-(p-tolyl)-1H-pyrazol-5-yl)ureido)naphthalen-1-yl)oxy)methyl)pyridin-2-yl)amino)-N-(3-morpholino-propyl)pyrazine-2-carboxamide]
–	31	Cc1ccc(-n2nc(C(C)(C)C)cc2NC(=O)Nc2ccc(OCc3ccnc(Nc4cnc(C(=O)NCCCN5CCN(C)CC5)cn4)c3)c3ccccc23)cc1 [Example 280, 5-((4-(((4-(3-(3-(tert-butyl)-1-(p-tolyl)-1H-pyrazol-5-yl)ureido)naphthalen-1-yl)oxy)methyl)pyridin-2-yl)amino)-N-(3-(4-methyl-piperazin-1-yl)propyl) pyrazine-2-carboxamide]
–	289	Cc1ccc(-n2nc(C(C)(C)C)cc2NC(=O)Nc2ccc(OCc3ccnc(Nc4cnc(C(=O)NCC(C)(C)N5CCOCC5)cn4)c3)c3ccccc23)cc1 [Example 281, 5-((4-(((4-(3-(3-(tert-butyl)-1-(p-tolyl)-1H-pyrazol-5-yl)ureido)naphthalen-1-yl)oxy)methyl)pyridin-2-yl)amino)-N-(2-methyl-2-morpholinopropyl)pyrazine-2-carboxamide]
–	62	COCCN1CCC(NC(=O)c2cnc(Nc3cc(COc4ccc(NC(=O)Nc5cc(C(C)(C)C)nn5-c5ccc(C)cc5)c5ccccc45)ccn3)cn2)CC1 [Example 282, 5-((4-(((4-(3-(3-(tert-butyl)-1-(p-tolyl)-1H-pyrazol-5-yl)ureido)naphthalen-1-yl)oxy)methyl)pyridin-2-yl)amino)-N-(1-(2-methoxy-ethyl)piperidin-4-yl) pyrazine-2-carboxamide]
–	35	CCN1CCN(C(=O)c2cnc(Nc3cc(COc4ccc(NC(=O)Nc5cc(C(C)(C)C)nn5-c5cccc(COC)c5)c5ccccc45)ccn3)cn2)CC1 [Example 283, 1-(3-(tert-butyl)-1-(3-(methoxymethyl)phenyl)-1H-pyrazol-5-yl)-3-(4-((2-((5-(4-ethylpiperazine-1-carbonyl)pyrazin-2-yl)amino)pyridin-4-yl)methoxy)naphthalen-1-yl)urea]
–	1.7	COCc1cccc(-n2nc(C(C)(C)C)cc2NC(=O)Nc2ccc(OCc3ccnc(Nc4cnc(C(=O)N5CCC(N(C)C)CC5)cn4)c3)c3ccccc23)c1 [Example 284, 1-(3-(tert-butyl)-1-(3-(methoxymethyl)phenyl)-1H-pyrazol-5-yl)-3-(4-((2-((5-(4-(dimethylamino)piperidine-1-carbonyl)pyrazin-2-yl)amino)pyridin-4-yl)methoxy)naphthalen-1-yl)urea]
–	83	Cc1ccc(-n2nc(C(C)(C)C)cc2NC(=O)Nc2ccc(OCc3ccnc(Nc4cncc(CN5CCOCC5)n4)c3)c3ccccc23)cc1 [Example 285, 1-(3-(tert-butyl)-1-(p-tolyl)-1H-pyrazol-5-yl)-3-(4-((2-((6-(morpholinomethyl)pyrazin-2-yl)amino)pyridin-4-yl)methoxy)naphthalen-1-yl)urea]
–	5.8	Cc1ccc(-n2nc(C(C)(C)C)cc2NC(=O)Nc2ccc(OCc3ccnc(Nc4cncc(C5CCN(C)CC5)n4)c3)c3ccccc23)cc1 [Example 286, 1-(3-(tert-butyl)-1-(p-tolyl)-1H-pyrazol-5-yl)-3-(4-((2-((6-(1-methylpiperidin-4-yl)pyrazin-2-yl)amino)pyridin-4-yl)methoxy)naphthalen-1-yl)urea]
–	> 12800	Cc1ccc(-n2nc(C(C)(C)C)cc2NC(=O)Nc2ccc(OCc3ccnc(Nc4cnc(C(=O)NC(C)(C)CN5CCOCC5)cn4)c3)c3ccccc23)cc1 [Example 287, 5-((4-(((4-(3-(3-(tert-butyl)-1-(p-tolyl)-1H-pyrazol-5-yl)ureido)naphthalen-1-yl)oxy)methyl)pyridin-2-yl)amino)-N-(2-methyl-1-morpholinopropan-2-yl) pyrazine-2-carboxamide]
–	> 13600	Cc1ccc(-n2nc(C(C)(C)C)cc2NC(=O)Nc2ccc(OCc3ccnc(Nc4cnc(C(=O)NCc5nccn5C)cn4)c3)c3ccccc23)cc1 [Example 288, 5-((4-(((4-(3-(3-(tert-butyl)-1-(p-tolyl)-1H-pyrazol-5-yl)ureido)naphthalen-1-yl)oxy)methyl)pyridin-2-yl)amino)-N-((1-methyl-1H-imidazol-2-yl)methyl)pyrazine-2-carboxamide]
